Tests used:
[1] = test system: Human Neuroblastoma cells (SH Sy5Y cells cell line); assay: in-vitro curcumin delivery experiment (curcumin fluorescence); format: cell-based; conditions: after 3.5 hours of treatment, relative to the 1 hour time point
From the text: FIGS. 5a-b depict different time points of the same experiment. […] This effect might be due to intra-cellular metabolism of the curcumin present in the SLN 10+Caffeine 13 sample.

PPARγ = target: T1, PPARγ (Homo sapiens, UniProt P37231); conditions: classified by ability to inhibit rosiglitazone-induced cellular responses; cited from earlier work
T1 sequence (P37231 1-505): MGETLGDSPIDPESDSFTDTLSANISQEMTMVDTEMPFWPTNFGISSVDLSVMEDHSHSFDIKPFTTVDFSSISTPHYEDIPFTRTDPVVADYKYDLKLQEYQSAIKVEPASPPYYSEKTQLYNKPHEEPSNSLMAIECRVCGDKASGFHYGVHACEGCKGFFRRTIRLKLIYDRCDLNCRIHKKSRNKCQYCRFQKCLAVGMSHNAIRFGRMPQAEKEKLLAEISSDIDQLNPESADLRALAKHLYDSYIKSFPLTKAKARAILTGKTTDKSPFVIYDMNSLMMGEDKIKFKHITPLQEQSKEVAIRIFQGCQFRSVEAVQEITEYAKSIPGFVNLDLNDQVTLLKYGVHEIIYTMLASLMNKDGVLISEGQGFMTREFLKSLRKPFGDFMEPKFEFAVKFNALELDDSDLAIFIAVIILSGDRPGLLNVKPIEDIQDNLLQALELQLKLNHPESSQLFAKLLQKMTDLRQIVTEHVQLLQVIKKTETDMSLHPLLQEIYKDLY

cyclooxygenase-2 (COX-2) = target: T2, cyclooxygenase-2 (COX-2) (Homo sapiens, UniProt P35354); conditions: cited from earlier work
T2 sequence (P35354 18-604): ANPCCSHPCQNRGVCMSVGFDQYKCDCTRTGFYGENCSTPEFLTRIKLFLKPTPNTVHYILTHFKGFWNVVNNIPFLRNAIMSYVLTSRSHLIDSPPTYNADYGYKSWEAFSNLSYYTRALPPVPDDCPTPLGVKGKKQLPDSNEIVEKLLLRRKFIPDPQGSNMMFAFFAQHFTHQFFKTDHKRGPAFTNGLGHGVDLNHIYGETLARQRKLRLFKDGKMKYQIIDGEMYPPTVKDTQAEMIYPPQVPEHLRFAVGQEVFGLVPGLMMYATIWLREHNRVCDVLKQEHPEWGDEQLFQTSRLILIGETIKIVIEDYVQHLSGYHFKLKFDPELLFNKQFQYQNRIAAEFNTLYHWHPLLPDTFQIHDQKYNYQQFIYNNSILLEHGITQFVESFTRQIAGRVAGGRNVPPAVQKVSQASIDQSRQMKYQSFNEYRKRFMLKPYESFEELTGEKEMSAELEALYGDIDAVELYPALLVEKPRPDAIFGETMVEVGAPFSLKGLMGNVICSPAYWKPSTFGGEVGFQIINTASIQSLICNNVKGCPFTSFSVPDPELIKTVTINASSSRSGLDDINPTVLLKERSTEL

[2] = test system: nuclear transcription factor κB (NF-κB) activation; conditions: cited from earlier work; for activation of IRAK-1, IKK-β, NF-κB, and MAP kinases (ERK, JNK, and p-38): LPS-stimulated murine peritoneal macrophages; for NF-κB activation: lipopolysaccharide (LPS)-stimulated murine peritoneal macrophages

Molecule | PPARγ activity (agonist, antagonist or modulator) (PPARγ) | other results
COc1cc(/C=C/C(=O)CC(=O)/C=C/c2ccc(O)c(OC)c2)ccc1O [curcumin] |  | curcumin fluorescence [1]: remained at the same levels
COc1ccc(-c2cc(=O)c3c(O)cc(O)cc3o2)cc1O [diosmetin] | antagonists | 
O=c1cc(-c2ccc(O)c(O)c2)oc2cc(O)cc(O)c12 [luteolin] | antagonists | 
COc1ccc(-c2coc3cc(O)cc(O)c3c2=O)cc1 [biochanin A] | agonist | 
O=C(/C=C/c1ccc(O)c(O)c1)O[C@H](Cc1ccc(O)c(O)c1)C(=O)O [rosmarinic acid] | antagonists | 
C-phycocyanin |  | IC50 COX-2/IC50 COX-1 ratio (cyclooxygenase-2 (COX-2)): 0.04
O=c1c(O)c(-c2ccc(O)c(O)c2)oc2cc(O)cc(O)c12 [quercetin] | antagonists | 
CC(C)=CCC[C@](C)(O[C@@H]1O[C@H](CO[C@@H]2O[C@H](CO)[C@@H](O)[C@H](O)[C@H]2O)[C@@H](O)[C@H](O)[C@H]1O)[C@H]1CC[C@]2(C)[C@@H]1[C@H](O)C[C@@H]1[C@@]3(C)CC[C@H](O[C@@H]4O[C@H](CO)[C@@H](O)[C@H](O)[C@H]4O[C@@H]4O[C@H](CO)[C@@H](O)[C@H](O)[C@H]4O)C(C)(C)[C@@H]3CC[C@]12C [ginsenoside Rb1] |  | activation of IRAK-1, IKK-β, NF-κB, and MAP kinases (ERK, JNK, and p-38) [2]: significantly inhibited; NF-κB activation [2]: inhibited
O=c1cc(-c2ccc(O)cc2)oc2cc(O)cc(O)c12 [apigenin] | modulators | 
O=C1C[C@@H](c2ccc(O)cc2)Oc2cc(O)cc(O)c21 [naringenin] | modulators | 
CC(C)=CCC[C@](C)(O[C@@H]1O[C@H](CO)[C@@H](O)[C@H](O)[C@H]1O)[C@H]1CC[C@]2(C)[C@@H]1[C@H](O)C[C@@H]1[C@@]3(C)CC[C@H](O)C(C)(C)[C@@H]3CC[C@]12C [compound K] |  | activation of IRAK-1, IKK-β, NF-κB, and MAP kinases (ERK, JNK, and p-38) [2]: significantly inhibited; NF-κB activation [2]: inhibited

From patent US20240269317A1, “TARGETED ENCAPSULATION STRATEGIES FOR TREATMENT MODALITIES” (NUTARIA LTD., priority 2021, published 2024)
